{"source": "patent US12564580B2", "about": "“Mitochondria-targeted isoketal/isolevuglandin scavengers and uses thereof” (Vanderbilt University, priority 2020, dated 2026)", "key": {"[1]": {"system": "human aortic endothelial cells (HAEC)", "assay": "Mitochondrial superoxide in human aortic endothelial cells stimulated with angiotensin II plus TNFα (mitoSOX HPLC)", "format": "cell-based", "description": "FIGS. 9A and B show the effect of mito2HOBA on mitochondrial superoxide and cardiolipin oxidation in human aortic endothelial cells induced by angiotensin II plus TNFα. (A) Mitochondrial superoxide was measured by HPLC analysis of mitoSOX-superoxide specific product, mito-2-hydroxyethidium (Mito-2OH-Et+). […] (B) Cardiolipin oxidation induced by Angiotensin II+TNFα measured my LC/MS. […] Data are mean±SEM. *P<0.01 vs Control, **P<0.01 vs Angiotensin II+TNFα (n=4).\nHuman aortic endothelial cells (HAEC) were purchased from Lonza (Chicago, IL) and cultured in EGM-2 medium supplemented with 2% FBS but without antibiotics. On the day before the study, the FBS concentration was reduced to 1%.\nWe tested if mito2HOBA reduces mitochondrial oxidative stress in human aortic endothelial cells (HAEC) stimulated with angiotensin II plus TNFα for 4-hours (FIG. 9). Indeed, supplementation of HAEC with mito2HOBA (50 nM) reduced mitochondrial superoxide production stimulated by TNF[…] and Ang II as measured by accumulation of specific superoxide-MitoSOX product, 2-OH-Mito-Ethidium."}, "complex II [2]": {"biological_target": "complex II (Mus musculus, UniProt Q8K2B3)", "sequence (Q8K2B3 43-664)": "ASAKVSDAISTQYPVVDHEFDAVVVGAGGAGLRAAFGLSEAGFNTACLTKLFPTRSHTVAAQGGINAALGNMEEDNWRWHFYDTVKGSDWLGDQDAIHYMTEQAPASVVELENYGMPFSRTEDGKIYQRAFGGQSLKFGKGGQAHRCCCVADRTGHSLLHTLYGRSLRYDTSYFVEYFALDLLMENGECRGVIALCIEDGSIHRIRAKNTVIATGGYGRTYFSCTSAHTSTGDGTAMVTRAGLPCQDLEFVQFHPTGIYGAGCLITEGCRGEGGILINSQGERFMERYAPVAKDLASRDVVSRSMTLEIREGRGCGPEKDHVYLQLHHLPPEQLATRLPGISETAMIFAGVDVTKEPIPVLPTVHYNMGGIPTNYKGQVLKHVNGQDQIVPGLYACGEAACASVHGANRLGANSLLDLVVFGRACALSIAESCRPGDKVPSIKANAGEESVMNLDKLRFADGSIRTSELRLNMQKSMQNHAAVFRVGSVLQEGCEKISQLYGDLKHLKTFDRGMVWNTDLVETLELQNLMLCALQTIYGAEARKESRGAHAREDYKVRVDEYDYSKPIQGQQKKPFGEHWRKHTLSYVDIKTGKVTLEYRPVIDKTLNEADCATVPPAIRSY", "sequence (Q9CQA3 31-282 partner)": "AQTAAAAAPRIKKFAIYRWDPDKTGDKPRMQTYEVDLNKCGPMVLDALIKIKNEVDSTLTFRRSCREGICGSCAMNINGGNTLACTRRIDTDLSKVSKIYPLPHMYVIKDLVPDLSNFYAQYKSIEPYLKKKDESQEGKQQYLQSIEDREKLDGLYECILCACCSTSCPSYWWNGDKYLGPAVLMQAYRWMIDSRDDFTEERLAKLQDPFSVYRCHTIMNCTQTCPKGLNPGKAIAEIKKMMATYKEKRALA", "sequence (Q9CZB0 30-169 partner)": "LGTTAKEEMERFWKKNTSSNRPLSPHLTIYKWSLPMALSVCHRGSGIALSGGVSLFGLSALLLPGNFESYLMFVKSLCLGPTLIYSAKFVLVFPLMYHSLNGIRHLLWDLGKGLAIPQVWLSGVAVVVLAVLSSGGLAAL", "sequence (Q9CXV1 57-159 partner)": "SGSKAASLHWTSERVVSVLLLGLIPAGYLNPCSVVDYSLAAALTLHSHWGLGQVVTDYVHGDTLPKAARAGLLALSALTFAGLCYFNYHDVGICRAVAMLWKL", "assay": "Glutamate-driven respiration of kidney mitochondria with Complex II inhibitor malonate", "settings": "malonate 5 mM, Glutamate+Malate", "method": "To study the mitochondrial function, the combination of glutamate and malate (GM) or succinate was used as substrates. Since glutamate can be converted via transamination to α-ketoglutarate and further to succinate, the present inventors used complex II inhibitor malonate to define specific complex I respiration. The basal respiration (1) was measured in mitochondria supplemented with respiratory substrates. Then ADP was added to measure the coupled respiration (2). The proton leak (3) was determined after addition of complex V inhibitor oligomycin A. The uncoupled respiration (4) was measured after supplementation with CCCP. Finally, antimycin A plus rotenone were added to assess non-mitochondrial respiration (5) as described previously [32].\nMitochondria were isolated from 12-14-week-old male C57BL6/6J mouse kidneys. For respiration studies, electrons were entered at either complex I (glutamate+malate as substrate) or complex II (succinate as substrate). […] Since kidney mitochondria are much less studied than mitochondria from other organs, the present inventors used the specific inhibitor of Complex II malonate (5 mM) to evaluate the alternative pathways for glutamate oxidation. The Complex II mediated respiration was defined as malonate-inhibited oxygen consumption while Complex I specific respiration was defined as malonate resistant oxygen consumption. […]"}, "[3]": {"system": "C57Bl/6J mice, Ang II-induced hypertension", "assay": "Blood pressure in angiotensin II model of hypertension (tail-cuff and telemetry)", "format": "in vivo, mouse", "settings": "same molar dose of untargeted 2HOBA (0.17 mmol/L) in drinking water", "excerpt": "FIGS. 10A-D show the effect of mito2HOBA on angiotensin II-induced hypertension and accumulation of mitochondrial isoLGs protein adducts. (A) Blood pressure tail-cuff measurements in male Sham or angiotensin II-infused mice supplied with mito2HOBA in drinking water (0.1 g/L) or equimolar amount of untargeted analog 2HOBA (0.17 mmol/L). (B) Telemetry studies of blood pressure in angiotensin II-infused mice supplied with mito2HOBA or plain water as a vehicle. (C) Representative LC/MS/MS chromatograms of isoLG-Lysyl-Lactam adduct; (D) isoLG-Lys-Lactam levels in kidney mitochondria isolated from Sham or angiotensin II-infused mice supplied with mito2HOBA. Results are mean±SEM. *P<0.01 vs Sham, **P<0.01 vs Ang II (n=8).\nHypertension was induced by angiotensin II ([…]) as described previously. To test the therapeutic potential of scavenging of mitochondrial isoLGs, wild-type C57B1/6J male and female mice (Jackson Labs) received saline or angiotensin II minipump placement, and provided with the plain water (vehicle) or mito2HOBA in the drinking water (0.1 g/liter). Blood pressure was monitored by the telemetry and tail-cuff measurements as previously described. The Vanderbilt Institutional Animal Care and Use Committee approved the procedures (Protocol M1700207). Simple randomization was used to select animals for sham, angiotensin II or mito2HOBA groups for equal chance of being allocated to treatment groups.\nTo test a functional role of mitochondrial isoLGs in hypertension, we used an Ang II model of hypertension, and monitored blood pressure by tail-cuff (FIG. 10A) and telemetry (FIG. 10B). […] Infusion of wild-type C57B1/6J mice with Ang II (0.7 mg/kg/day) increased systolic blood pressure to 162 mm Hg."}, "[4]": {"system": "Intact mouse kidney mitochondria, complex I-mediated respiration", "assay": "Respiration of isolated kidney mitochondria with complex I substrates glutamate+malate after acute IsoLG/IsoLG-PE treatment", "format": "biochemical"}, "complex I": {"system": "complex I", "assay": "Complex I activity in mouse kidney mitochondrial lysate", "settings": "mitochondrial lysates treated with a bolus of IsoLG", "method": "(C) Mouse kidney mitochondrial lysate was acutely treated with DMSO (Control), ethanolamine, spermine, L-lysine, IsoLG (1.5 μM) or IsoLG modified-ethanolamine (IsoLG-ETN, 1.5 μM), -spermine (IsoLG-Sper, 1.5 μM), L-lysine (IsoLG-Lys, 1.5 μM), -phosphatidylethanolamine (IsoLG-PE, 1.5 μM) prior to measurements of complex I activity expressed as a % of Control (100%).\nOXPHOS specific enzyme activities in submitochondrial particles (SMP) were measured using a Varian Cary 300 Bio UV/Vis spectrophotometer with temperature controlling cell holder. Briefly, SMP were prepared by sonication of isolated organelles. Complex I activity was monitored in triplicate samples as the reduction of 10 μM decylubiquinone at 272 nm by 15 μg of mitochondrial protein with 40 μM NADH.\nTo test this hypothesis, the present inventors studied the activity of complex I and complex II in mitochondrial lysates treated with a bolus of IsoLG."}, "complex II [5]": {"biological_target": "complex II (Mus musculus, UniProt Q8K2B3+Q9CQA3+Q9CXV1+Q9CZB0)", "sequence (Q8K2B3 43-664)": "as the sequence (Q8K2B3 43-664) above", "sequence (Q9CQA3 31-282)": "as the sequence (Q9CQA3 31-282 partner) above", "sequence (Q9CZB0 30-169)": "as the sequence (Q9CZB0 30-169 partner) above", "sequence (Q9CXV1 57-159)": "as the sequence (Q9CXV1 57-159 partner) above", "assay": "Complex II activity in mouse kidney mitochondrial lysate", "format": "biochemical", "settings": "mitochondrial lysates treated with a bolus of IsoLG"}, "[6]": {"system": "Intact mouse kidney mitochondria, complex II respiration", "assay": "Respiration of isolated kidney mitochondria with complex II substrate succinate after acute IsoLG/IsoLG-PE treatment", "format": "biochemical", "settings": "acute addition of a low dose (0.5 μM printed elsewhere in the source)", "description": "FIGS. 1A-1C show acute treatment with IsoLG or IsoLG-PE impairs mitochondrial respiration. (A) Intact mouse kidney mitochondria were incubated (5 min) with ethanol as vehicle (Sham), IsoLG (20 μM) or IsoLG-PE (20 μM) and then diluted with respiration buffer 20-fold prior to addition of Glutamate and Malate, ADP (50 μM) and measurements of oxygen consumption in State III. *P<0.001 vs Sham, **P<0.03 vs IsoLG. (B) Oxygen consumption in the presence of complex I substrates Glutamate+Malate and ADP (State III) and Respiratory Control Ratio (State III/State IV, %) in intact kidney mitochondria treated with vehicle, IsoLG (1.5 μM) or IsoLG-PE (1.5 μM) in the respiration chamber. (C) State III respiration and Respiratory Control Ratio (State III/State IV, %) in presence of complex II substrate Succinate and ADP following addition of vehicle, IsoLG (1.5 μM) or IsoLG-PE (1.5 μM) in the respiration chamber.\nComplex I is a key component of mitochondrial oxidative phosphorylation. Inactivation of complex I can lead to reduced ATP production and tissue damage. Addition of IsoLG to cells produces both protein—adducts and IsoLG-phosphatidylethanolamine adducts (IsoLG-PE) which can independently contribute to mitochondrial dysfunction. The present inventors tested whether IsoLG or IsoLG-PE could contribute to mitochondrial dysfunction. […]"}}, "data": [{"molecule": "NCc1ccc(O)cc1", "note": "[4HOBA, 4-hydroxybenzylamine]", "values": [{"measurement": "mitochondrial superoxide (mitochondrial oxidative stress)", "setting": "[1]; 4HOBA high dose 10 μM, angiotensin II plus TNFα", "value": "did not protect"}]}, {"molecule": "O=C(O)CC(=O)O", "note": "[Malonate, malonate]", "values": [{"measurement": "inhibition of glutamate-driven respiration", "setting": "complex II [2]", "value": 58, "unit": "%"}]}, {"molecule": "NCc1ccccc1O", "note": "[2HOBA, 2-hydroxybenzylamine]", "values": [{"measurement": "Ang II-induced hypertension", "setting": "[3]", "value": "did not attenuate"}, {"measurement": "mitochondrial superoxide production", "setting": "[1]; 50 nM, angiotensin II plus TNFα for 4-hours", "value": "did not affect"}, {"measurement": "mitochondrial superoxide overproduction", "setting": "[1]; cultured HAEC, concentration not stated (discussion)", "value": "partially attenuates"}]}, {"molecule": "15-E2-isolevuglandin [15-E2-IsoLG]", "values": [{"measurement": "inhibition of state 3 respiration", "setting": "[4]; 20 μM, five-minute treatment of isolated mitochondria, complex I substrates glutamate+malate", "value": 74, "unit": "%"}, {"measurement": "complex I-mediated respiration", "setting": "[4]; acute addition of a low dose (0.5 μM printed elsewhere in the source), intact mitochondria", "value": "significantly attenuated"}, {"measurement": "complex I inactivation", "setting": "complex I", "value": 74, "unit": "%"}, {"measurement": "complex II activity inhibited", "setting": "complex II [5]", "value": 21, "unit": "%"}, {"measurement": "complex II respiration", "setting": "[6]", "value": "much less affected"}]}]}
